PubChem BioAssay (NCI)
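Results reflect a 48-hour exposure of cells in 96-well plates to compound at five concentrations. GI50 marks 50% less growth. TGI marks complete inhibition of growth.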

What was measured:
Experiment in all cases: inhibition of tumour cell growth, NCI panel, 48 h
[1] = test system: HL-60(TB) leukemia
[2] = test system: HOP-92 NSCLC
[3] = test system: SNB-75 CNS
[4] = test system: RPMI-8226 leukemia
[5] = test system: K-562 leukemia
[6] = test system: HCC-2998 colon
[7] = test system: NCI-H522 lung
[8] = test system: MCF7 breast
[9] = test system: SK-MEL-2 melanoma
[10] = test system: U251 CNS
[11] = test system: CCRF-CEM leukemia
[12] = test system: MDA-MB-435
[13] = test system: COLO 205 colon
[14] = test system: UACC-257 melanoma
[15] = test system: SK-MEL-28 melanoma
[16] = test system: SF-295 CNS
[17] = test system: EKVX NSCLC
[18] = test system: MDA-MB-231 breast
[19] = test system: IGROV1 ovarian
[20] = test system: A498 renal
[21] = test system: PC-3 prostate
[22] = test system: NCI-H23 lung
[23] = test system: A549 NSCLC
[24] = test system: SN12C renal
[25] = test system: M14 melanoma
[26] = test system: NCI-H460 lung
[27] = test system: UO-31 renal
[28] = test system: HS 578T breast
[29] = test system: UACC-62 melanoma
[30] = test system: SK-OV-3 ovarian
[31] = test system: DU-145 prostate
[32] = test system: SNB-19 CNS
[33] = test system: CAKI-1 renal
[34] = test system: MALME-3M melanoma
[35] = test system: 786-0 renal
[36] = test system: BT-549 breast
[37] = test system: NCI/ADR-RES ovarian
[38] = test system: TK-10 renal
[39] = test system: T-47D breast
[40] = test system: SW-620 colon
[41] = test system: KM12 colon
[42] = test system: SF-268 CNS
[43] = test system: SK-MEL-5 melanoma
[44] = test system: HCT-15 colon
[45] = test system: OVCAR-8 ovarian
[46] = test system: NCI-H226 lung
[47] = test system: HCT-116 colon
[48] = test system: OVCAR-4 ovarian
[49] = test system: MOLT-4 leukemia
[50] = test system: HOP-62 NSCLC

COc1cc(/C=C/c2cc(/C=C/c3ccc(O)c(OC)c3)n(C(=O)c3ccccc3Br)n2)ccc1O
GI50 [1]: 2.07 µM | TGI [1]: 6 µM | GI50 [2]: 3.82 µM | TGI [2]: 9.65 µM | GI50 [3]: 2.79 µM | TGI [3]: 15.4 µM | GI50 [4]: 2.05 µM | TGI [4]: 6 µM | GI50 [5]: 1.45 µM | TGI [5]: > 100 µM | GI50 [6]: 2.48 µM | TGI [6]: 6.37 µM | GI50 [7]: 1.38 µM | TGI [7]: 6.32 µM | GI50 [8]: 3 µM | TGI [8]: 13 µM | GI50 [9]: 2.37 µM | TGI [9]: 5.92 µM | GI50 [10]: 2.62 µM | TGI [10]: > 100 µM | GI50 [11]: 0.841 µM | TGI [11]: 6.14 µM | GI50 [12]: 0.687 µM | TGI [12]: 8.06 µM | GI50 [13]: 2.31 µM | TGI [13]: 4.63 µM | GI50 [14]: 3.36 µM | TGI [14]: 40.1 µM | GI50 [15]: 2.57 µM | TGI [15]: 8.71 µM | GI50 [16]: 3.12 µM | TGI [16]: 35.1 µM | GI50 [17]: 4.72 µM | TGI [17]: > 100 µM | GI50 [18]: 3.59 µM | TGI [18]: > 100 µM | GI50 [19]: 4.11 µM | TGI [19]: > 100 µM | GI50 [20]: 3.04 µM | TGI [20]: 8.71 µM | GI50 [21]: 3.02 µM | TGI [21]: 66.9 µM | GI50 [22]: 2.68 µM | TGI [22]: 16.9 µM | GI50 [23]: 3.05 µM | TGI [23]: 45.3 µM | GI50 [24]: 2.22 µM | TGI [24]: > 100 µM | GI50 [25]: 3.07 µM | TGI [25]: > 100 µM | GI50 [26]: 2.99 µM | TGI [26]: > 100 µM | GI50 [27]: 2.36 µM | TGI [27]: 34.1 µM | GI50 [28]: 2.75 µM | TGI [28]: 48.6 µM | GI50 [29]: 2.64 µM | TGI [29]: 8.77 µM | GI50 [30]: 2.24 µM | TGI [30]: 5.31 µM | GI50 [31]: 3.29 µM | TGI [31]: 34.8 µM | GI50 [32]: 2.7 µM | TGI [32]: > 100 µM | GI50 [33]: 2.2 µM | TGI [33]: > 100 µM | GI50 [34]: 3.27 µM | TGI [34]: 43.6 µM | GI50 [35]: 3.19 µM | TGI [35]: > 100 µM | GI50 [36]: 2.12 µM | TGI [36]: 7.75 µM | GI50 [37]: 3.72 µM | TGI [37]: > 100 µM | GI50 [38]: 3.85 µM | TGI [38]: 33 µM | GI50 [39]: 2.93 µM | TGI [39]: 13.2 µM | GI50 [40]: 3.66 µM | TGI [40]: > 100 µM | GI50 [41]: 2.22 µM | TGI [41]: > 100 µM | GI50 [42]: 2.44 µM | TGI [42]: > 100 µM | GI50 [43]: 2.56 µM | TGI [43]: 13.3 µM | GI50 [44]: 2.8 µM | TGI [44]: > 100 µM | GI50 [45]: 2.75 µM | TGI [45]: 12.4 µM | GI50 [46]: 3.29 µM | TGI [46]: 56.5 µM | GI50 [47]: 3.06 µM | TGI [47]: > 100 µM | GI50 [48]: 3.64 µM | TGI [48]: 22.8 µM | GI50 [49]: 1.23 µM | TGI [49]: > 100 µM | GI50 [50]: 3.41 µM | TGI [50]: 16.3 µM
